Marks after values point to notes of the source that are not given here.
Legend:
[1] = tested on: N2a (ECACC) mouse neuroblastoma cells; assay: Cell viability by MTT reduction test in N2a cells, with and without Aβ1-42 prefibrillar aggregates; type: cell-based; conditions: for Comparison of the results among glycated oleuropein, oleuropein aglycone and hydroxytyrosol: Example 1 cell experiments; for Comparison of the results among the glutathione thioesters used (cell viability, mTOR P, ACi): micromolar levels, with and without Aβ1-42 aggregates
Method: (§1) N2a (ECACC) mouse neuroblastoma cells, plated in the presence of MEM integrated with non-essential amino acids, 10% FCS, antibiotics and glutamine, were exposed for 48 h to micromolar levels of oleuropein aglycone and/or glutathione thioesters (GST), in the presence and in the absence of prefibrillar aggregates of Aβ1-42 peptides (Lambert M, et al. J. Neurochem. 2001, 79:595-605). […] In the control plates (CTRL) the cells were incubated under the same conditions in the presence of the culture medium alone. The following were then evaluated: • the state of cell viability through the MTT reduction test (Pensalfini A et al., Free
(§2) Rad Biol Med 2008, 44: 1624-1636). • the level of mTOR substrate phosphorylation of kinase p70 S6 (mTOR P) by western blot analysis and subsequent densitometry (Grossi C, et al., PLoS ONE 2013, 8: e71702) • the level of intracellular antioxidant capacity (ACi) through hydrosolublescavenger doses in the cellular lysates in chemiluminescence, using • the Pholasin photoprotein (ABEL Antioxidant Test Kit, Knight Scientific Ltd., UK) as reported in Cecchi C., et al. Neurobiol. Aging 28: 863-876, 2007.
(§3) ACi values were correct for the % of viable cells. AP=toxic prefibrillar aggregates.

[2] = as above; type: cell-based, mouse; conditions: mouse, N2a (ECACC) neuroblastoma cells; read-out: Cell viability (MTT test), % respect to controls
Method: as §1, §2, §3

mTOR = mTOR substrate phosphorylation of kinase p70 S6 (mTOR P), western blot and densitometry, N2a cells; type: cell-based, mouse; conditions: 48 h
Method: as §1, §2, §3

[3] = tested on: N2a (ECACC) mouse neuroblastoma cells; assay: Intracellular antioxidant capacity (ACi) in cell lysates, Pholasin chemiluminescence, N2a cells; type: cell-based; conditions: 48 h, corrected for % viable cells, CTRL 2.60
Method: as §1, §2, §3

[4] = in the presence of Aβ42 AP 3 μM (OLE 2 µM; GST 3 µM)
[5] = substance(s) alone, no Aβ42 AP added (Aβ42 AP 3 μM; OLE 2 µM; GST 3 µM)

Row | Compound | Comparison of the results among glycated oleuropein, oleuropein aglycone and hydroxytyrosol [1] | Comparison of the results among the glutathione thioesters used (cell viability, mTOR P, ACi) ([1]; N2a cells, 48 h) | further results
1 | C/C=C1/[C@H](O[C@@H]2O[C@H](CO)[C@@H](O)[C@H](O)[C@H]2O)OC=C(C(=O)OC)[C@H]1CC(=O)OCCc1ccc(O)c(O)c1 [glycated oleuropein, oleuropein] | No significant differences | – | –
2 | CC/C=C\C/C=C\C/C=C\CCCCCCCC(=O)SCC(NC(=O)CCC(N)C(=O)O)C(=O)NCC(=O)O (stereo not drawn) [S-linolenoyl-glutathione] | – | equivalent results | –
3 | CC/C=C\C/C=C\C/C=C\C/C=C\C/C=C\C/C=C\CCC(=O)SC[C@H](NC(=O)CC[C@H](N)C(=O)O)C(=O)NCC(=O)O [S-docohexaenoyl-glutathione] | – | equivalent results | –
4 | CCCCC/C=C\C/C=C\CCCCCCCCSC[C@H](NC(=O)CC[C@H](N)C(=O)O)C(=O)NCC(=O)O [S-linoleyl-glutathione] | – | equivalent results | –
5 | CCCCCCCC/C=C\CCCCCCCCSC[C@H](NC(=O)CC[C@H](N)C(=O)O)C(=O)NCC(=O)O [S-oleyl-glutathione] | – | equivalent results | –
6 | C/C=C1/C(O)OC=C(C(=O)OC)[C@H]1CC(=O)OCCc1ccc(O)c(O)c1 (mixture of isomers) [OLE, oleuropein aglycone] | No significant differences | – | viability at 48 h, 2 µM [2]: 98%; Cell viability (MTT test), % respect to controls ([1]; N2a cells, 48 h, in the presence of Aβ42 AP 3 μM (OLE 2 µM; GST 3 µM)): 65* %; mTOR P, % respect to controls (mTOR; [4]): 69%; mTOR P, % respect to controls (mTOR; [5]): 12* %; ACi, mmol/L GSH Equivalent [3, 4]: 1.55* mmol/L GSH Equivalent; ACi, mmol/L GSH Equivalent [3, 5]: 2.68 mmol/L GSH Equivalent
